Results: patent publication US8841306B2, “Antimicrobials” (Panacea Biotec Ltd., priority 2008, dated 2014)
≈ marks a conversion by molar mass, not a printed value. Like-named read-outs stand apart in the source and are kept apart here.

Columns and labels:
[1] = system: E. faecium ATCC 700221 (VRE); experiment: In-vitro antibacterial activity, broth microdilution MIC (CLSI); type: cell-based; details: Enterococcus faecium, 35±2° C., 16-20 h, read visually, read-out: MIC E. faecium ATTC 700221 (VRE)
Experimental: (§1) The in-vitro antibacterial activity of the compounds of the present invention (as described in Table 2) was determined by a broth microdilution following the guidelines prescribed by the Clinical and Laboratory Standards Institute (CLSI). This method is described in the CLSI Document M7-A7, Vol. 26, No. 2, “Methods for Dilution Antimicrobial Susceptibility Test for Bacteria that Grow Aerobically; Approved Standard-Seventh Edition”, which is incorporated herein by reference. Minimum Inhibitory Concentration (MIC) is defined as the minimum concentration of test compound which inhibits the growth of bacteria as visible or seen by the naked eye. This test can also be carried out by agar dilution method.
(§2) The compounds of the present invention were tested against a panel of standard microorganisms obtained from ATCC (American type culture collection), and a Linezolid resistant strain (LRSA) i.e. PTCC 100 (Panacea type culture collection). PTCC 100 is a repository that has been created by Panacea Biotec Ltd. at Mohali, India for storage and maintenance of clinical, bacterial and other isolates developed in-house which are used for testing the test compounds. Linezolid was used as comparator in all the tests.
(§3) In the broth microdilution method, the compound was dissolved in dimethylsulfoxide and two fold serial dilutions were carried out in 96 well microtitre plates. The inoculum was prepared by adjusting the turbidity of actively growing broth culture and added to the wells to obtain a final bacterial count of ˜2-5×10^4 CFU/well. The microtitre plates were incubated at 35±2° C. for 16-20 h and then read visually.

E. faecalis ATCC 29212 = experiment: as above; type: cell-based; details: Enterococcus faecalis, ATCC29212, 35±2° C., 16-20 h, read visually
Experimental: as §1, §2, §3

[2] = system: S. aureus ATCC 29213 (MSSA); experiment: as above; type: cell-based; details: Staphylococcus aureus, 35±2° C., 16-20 h, read visually
Experimental: as §1, §2, §3

[3] = system: S. aureus ATCC 33591 (MRSA); experiment: as above; type: cell-based; details: Staphylococcus aureus, 35±2° C., 16-20 h, read visually
Experimental: as §1, §2, §3

[4] = system: S. aureus PTCC 100 (LRSA); experiment: In-vitro antibacterial activity, broth microdilution MIC against linezolid resistant strain; type: cell-based; details: Staphylococcus aureus
Experimental: as §1, §2, §3
PTCC 100 was developed by a procedure similar to the one cited in Antimicrobial Agents and Chemotherapy, 2008, 52, 1940. Female Swiss albino mice (18-22gm) bred in-house were inoculated with S. aureus ATCC 29213 strain and dosed orally with Linezolid at 5 mg/kg/p.o, next day mice were sacrificed after 20-22 h and intraperitoneal swab was taken and streaked onto Mueller Hinton Agar plates containing 4 and 8 μg/mL of Linezolid. Colonies obtained on 4 μg/mL and 8 μg/mL were selected from plates and further passaged into mice (SAM), dosed orally with Linezolid at 7.5 mg/kg/p.o. Mice were sacrificed and intraperitoneal swabs were streaked onto plates containing higher linezolid concentration i.e 16 and 32 μg/mL and the process was repeated by incrementally increasing the concentration of Linezolid upto 10 mg/kg/p.o in mice, to finally obtain S. aureus strains resistant to Linezolid at 64 μg/mL.

S. aureus ATCC 29213 = experiment: In-vivo efficacy: systemic model of infection in mice; set-up: species or system Staphylococcus aureus; details: female Swiss albino mice, i.p. infection, oral dosing at 1 h and 5 h post infection, 50% survival at 7 days
Experimental: Female Swiss albino mice bred in-house were selected in weight range of 19-23 gm (n=6/group). S. aureus ATCC 29213 was grown overnight for 18-20 h, on Columbia Blood Agar (Difco; BD). Next day bacterial inoculum was prepared with optical density (O.D) corresponding to cell density of ˜2˜10^9 CFU/ml and mixed with 10% of gastric mucin (Difco; BD) in ratio of 1:1 to obtain final mucin concentration of 5% w/v. 0.5 mL of bacterial inoculum was injected intraperitoneally (i.p) into all the mice. Compounds obtained in the present invention, hereinafter referred as Test compounds were formulated in 0.25% Carboxymethylcellulose (C.M.C) and Tween 80, at different dose levels and then administered orally at 1 h and 5 h post infection. Linezolid was used as standard control. Saline was administered to the infection control group which received neither the test compound nor the standard drug. […] Numbers of survivors in each group were noted and ED50 of test compound on the basis of 50% survival was calculated through regression analysis.

[5] = PTCC100, read-out: MIC S. aureus PTCC 100 (LRSA)

SMILES | MIC [1] [µg/mL] | MIC (E. faecalis ATCC 29212) [µg/mL] | MIC [2] [µg/mL] | MIC [3] [µg/mL] | MIC [4, 5] [µg/mL] | ED50 values S. aureus ATCC 29213 (S. aureus ATCC 29213) [mg/kg/p.o.] | MIC ([4]; PTCC100, read-out: MIC of isolated colonies (PTCC 100)) [µg/mL]
COC(=O)NC[C@H]1CN(c2cc(F)c(N3CCN(C(=O)CNC(=O)c4cn5ccncc5n4)CC3)c(F)c2)C(=O)O1 [Compound 1] | 0.25 (≈ 0.437 µM) | 0.5 (≈ 0.873 µM) | 0.5 (≈ 0.873 µM) | 0.25 (≈ 0.437 µM) | 0.25 (≈ 0.437 µM) | – | –
CC(=O)NC[C@H]1CN(c2cc(F)c(N3CCN(C(=O)[C@H](CC(C)C)NC(=O)c4cn5ccncc5n4)CC3)c(F)c2)C(=O)O1 [Compound 2] | 1 (≈ 1.63 µM) | 2 (≈ 3.26 µM) | 2 (≈ 3.26 µM) | 2 (≈ 3.26 µM) | 4 (≈ 6.53 µM) | – | –
COC(=O)NC[C@H]1CN(c2ccc(N3CCN(C(=O)CNC(=O)c4cn5ccncc5n4)CC3)c(F)c2)C(=O)O1 [Compound 3] | 0.25 (≈ 0.451 µM) | 0.5 (≈ 0.902 µM) | 0.5 (≈ 0.902 µM) | 0.5 (≈ 0.902 µM) | 2 (≈ 3.61 µM) | – | –
COC(=O)NC[C@H]1CN(c2cc(F)c(N3CCN(C(=O)[C@H](CO)NC(=O)c4cn5ccncc5n4)CC3)c(F)c2)C(=O)O1 [Compound 4] | 0.5 (≈ 0.83 µM) | 0.5 (≈ 0.83 µM) | 0.5 (≈ 0.83 µM) | 0.5 (≈ 0.83 µM) | 1 (≈ 1.66 µM) | – | –
COC(=O)NC[C@H]1CN(c2cc(F)c(N3CCN(C(=O)[C@H](C)NC(=O)c4cn5ccncc5n4)CC3)c(F)c2)C(=O)O1 [Compound 5] | 0.5 (≈ 0.852 µM) | 0.5 (≈ 0.852 µM) | 0.5 (≈ 0.852 µM) | 0.5 (≈ 0.852 µM) | 1 (≈ 1.7 µM) | – | –
CC(=O)NC[C@H]1CN(c2cc(F)c(N3CCN(C(=O)CNC(=O)c4cn5ccncc5n4)CC3)c(F)c2)C(=O)O1 [Compound 6] | 0.5 (≈ 0.898 µM) | 0.5 (≈ 0.898 µM) | 0.5 (≈ 0.898 µM) | 0.5 (≈ 0.898 µM) | 1 (≈ 1.8 µM) | – | –
CC(=O)NC[C@H]1CN(c2cc(F)c(N3CCN(C(=O)C4(NC(=O)c5cn6ccncc6n5)CCCC4)CC3)c(F)c2)C(=O)O1 [Compound 7] | 8 (≈ 13.1 µM) | 8 (≈ 13.1 µM) | 32 (≈ 52.4 µM) | 16 (≈ 26.2 µM) | – | – | –
COC(=O)NC[C@H]1CN(c2ccc(N3CCCN(C(=O)CNC(=O)c4cn5ccncc5n4)CC3)c(F)c2)C(=O)O1 [Compound 25] | 1 (≈ 1.76 µM) | 1 (≈ 1.76 µM) | 2 (≈ 3.52 µM) | 2 (≈ 3.52 µM) | – | – | –
COC(=O)NC[C@H]1CN(c2cc(F)c(N3CCN(C(=O)CNC(=O)c4ccc(Cl)nc4)CC3)c(F)c2)C(=O)O1 [Compound 130] | 0.125 (≈ 0.22 µM) | 0.25 (≈ 0.441 µM) | 0.25 (≈ 0.441 µM) | 0.25 (≈ 0.441 µM) | 8 (≈ 14.1 µM) | – | –
C[C@H](NC(=O)c1cn2cccnc2n1)C(=O)N1CCN(c2c(F)cc(N3C[C@H](CNC(=O)c4ccno4)OC3=O)cc2F)CC1 [Compound 190] | 0.5 (≈ 0.802 µM) | 0.25 (≈ 0.401 µM) | 0.25 (≈ 0.401 µM) | 0.25 (≈ 0.401 µM) | – | – | –
COC(=O)NC[C@H]1CN(c2cc(F)c(N3CCN(C(=O)[C@H](C)NC(=O)c4ccc(F)nc4)CC3)c(F)c2)C(=O)O1 [Compound 196] | 0.25 (≈ 0.443 µM) | 0.5 (≈ 0.886 µM) | 0.5 (≈ 0.886 µM) | 0.5 (≈ 0.886 µM) | – | – | –
COC(=O)NC[C@H]1CN(c2cc(F)c(N3CCN(C(=O)[C@H](C)NC(=O)c4cccnc4F)CC3)c(F)c2)C(=O)O1 [Compound 197] | 0.25 (≈ 0.443 µM) | 0.5 (≈ 0.886 µM) | 1 (≈ 1.77 µM) | 0.5 (≈ 0.886 µM) | – | – | –
CC(=O)NC[C@H]1CN(c2ccc(N3CCOCC3)c(F)c2)C(=O)O1 [Linezolid, reference compound] | 2 (≈ 5.93 µM) | 2 (≈ 5.93 µM) | 2 (≈ 5.93 µM) | 1 (≈ 2.96 µM) | 32 (≈ 94.9 µM) | 6.0 | 64
